Experiment [1] concerns 22AG (DNA, G4) AGGGTTAGGGTTAGGGTTAGGG
The experiment can be described thus: fluorimetric titration. Particulars: 95 mM K+; potassium phosphate buffer, 5% DMSO, pH 7.0; ligand 20 μM; DNA concentration in oligonucleotide.

The test system is the same in experiment [2]. The experiment can be described thus: photometric titration. The following applies: 95 mM K+; potassium phosphate buffer, 5% DMSO, pH 7.0; ligand 20 μM; DNA concentration in oligonucleotide.

Molecules are shown by their SMILES.

Turning to `C(#Cc1cc2ccccc2c2ccccc12)c1ccc2c[n+]3ccccc3cc2c1`, the Kb in experiment [1] came to 30000 M⁻¹.
Still for that read-out and setting: as for `C(#Cc1ccc2c[n+]3ccccc3cc2c1)c1ccccc1`, the figure is 220000 M⁻¹.
Consider `CN(C)c1ccc(C#Cc2ccc3c[n+]4ccccc4cc3c2)cc1`, for which the Kb in experiment [2] was 16000 M⁻¹.
Same read-out and setting: the same measure for `COc1ccc(C#Cc2ccc3c[n+]4ccccc4cc3c2)cc1`: 26000 M⁻¹.

The values are drawn from paper PMC6071731 (2018).
